Laboratory results from patent US9862711B2, “Pyrazine derivatives as phosphatidylinositol 3-kinase inhibitors” (NOVARTIS AG, priority 2014, dated 2018).

Molecular target: PI 3-kinase delta (Homo sapiens (Human), UniProt O00329)
Test: Cellular p-Akt (S473) SureFire assay, Rat-1_PI3Kdelta cells (Assay J)
Format: cell-based
Details: p-AKT (Ser473) in Rat-1 cells expressing myr-HA-hp110 delta, 1 h compound; read-out: Assay J PI3Kδ IC50
Excerpt: Cellular Assays for PI 3-Kinase Alpha (H), Beta (I) and Delta (J)
AlphaScreen (Amplified Luminescent Proximity Homogeneous Assay, ALPHA, Perkin Elmer) is a non-radioactive bead-based proximity assay technology to study biomolecular interactions in a homogenous microtiter plate format. The brand name SureFire denotes AlphaScreen assays that are adapted to quantify the phosphorylation of endogenous cellular proteins in cell lysates, by using matched antibody pairs, which consist of an anti-phospho-kinase and an anti-kinase antibody. The assay allows characterization of kinase signaling in cells as well as measurement of kinase inhibitor effects.
Rat-1 cell lines stably overexpressing activated PI 3-kinase class I isoforms Rat-1 pBABEpuro Myr-HA-hp110 delta clone 5 (Rat-1_PI3Kdelta) and Rat-1 pBABEpuro Myr-HA-hp110 alpha clone 6 (Rat-1_PI3Kalpha) and Rat-1 pBABEpuro Myr-HA-hp110 beta (Rat-1_PI3beta) were cultivated in complete growth medium (DMEM high glucose, 10% (v/v) fetal bovine serum, 1% (v/v) MEM NEAA, 10 mM HEPES, 2 mM L-glutamine, puromycin (10 μg/mL for Rat-1_PI3Kdelta and Rat-1_PI3Kalpha, 4 ug/mL for Rat-1_PI3beta), 1% (v/v) Pen/Strep) to 90% confluency at 37° C./5% CO2/90% humidity in a humidified CO2 incubator and were split twice a week. The following materials were used for p-AKT(5473) detection in Rat-1 cell lysates: Dulbecco's modified Eagle's medium (DMEM) high glucose (Gibco Invitrogen, Basel, Switzerland, Cat. No. 41965), heat inactivated fetal bovine serum, qualified (HI FBS; Gibco Invitrogen, Basel, Switzerland, Lot. No. 16140), MEM non essential amino acids (NEAA; Gibco Invitrogen, Basel, Switzerland, Cat. No. 11140), HEPES (Gibco Invitrogen, Basel, Switzerland, Cat. No. 15630), penicillin/streptomycin (Pen/Strep, 100×; Gibco Invitrogen, Basel, Switzerland, Cat. No. 15140-122), L-glutamine (Gibco Invitrogen, Basel, Switzerland, Cat. No. 25030), puromycin (Sigma Aldrich, Buchs, Switzerland, Cat. No. P9620), DMSO (MERCK, Dietikon, Switzerland, Cat. No. 8.02912.2500), H2O, MilliQ-H2O unless otherwise stated (MILLIPORE QGARDOOR1, Millipore, Zug, Switzerland), bovine serum albumine (BSA; Sigma Aldrich, Buchs, Switzerland Cat. No. A8412), SureFire p-Akt 1/2 (Ser473) Assay Kit (Perkin Elmer, Schwerzenbach, Switzerland, Cat. No. TGRAS50K).
The p-Akt (S473) SureFire assay measures the phosphorylation of endogenous cellular Akt 1/2 at Ser473 in cell lysates. Using Rat-1 cells stably expressing myr-HA-tagged versions of the human PI3Kdelta, PI3Kalpha, or PI3Kbeta p110 catalytic subunit isoforms, the assay was developed as a two-plate protocol in a 384-well format.
For compound testing, the cells were seeded at a density of 4000 (Rat-1_PI3Kdelta), 7500 (Rat-1_PI3Kalpha), or 6200 (Rat-1_PI3Kbeta) cells in 20 μl complete growth medium into cell culture treated 384-well plates and were grown at 37° C./5% CO2/90% humidity for 24 h. Shortly before compound transfer, the complete medium was removed, 30 μl assay buffer (DMEM high glucose, 1×MEM NEAA, 10 mM HEPES, 2 mM L-glutamine, 0.1% (w/v) BSA) was added and 10 μl of the compound predilutions were transferred to the cells. After treatment with compound for 1 h, the cells were lysed by the addition of 20 μl lysis buffer supplemented with 0.24% (w/v) BSA. Detection of p-AKT (Ser473) was performed with the SureFire p-Akt 1/2 (Ser473) Assay Kit according to the manufacturer's instructions using 5 ul of cell lysate in a total detection volume of 12 μl.
IC50 values of the percentage inhibition of each compound at 8 concentrations (usually 10, 3.0, 1.0, 0.3, 0.1, 0.030, 0.010 and 0.003 μM) n=2 were derived by fitting a sigmoidal dose-response curve to a plot of assay readout over inhibitor concentration as described. All fits were performed with the program XLfit4 (ID Business Solutions, Guildford, UK).

Chain of PI 3-kinase delta (O00329 whole entry): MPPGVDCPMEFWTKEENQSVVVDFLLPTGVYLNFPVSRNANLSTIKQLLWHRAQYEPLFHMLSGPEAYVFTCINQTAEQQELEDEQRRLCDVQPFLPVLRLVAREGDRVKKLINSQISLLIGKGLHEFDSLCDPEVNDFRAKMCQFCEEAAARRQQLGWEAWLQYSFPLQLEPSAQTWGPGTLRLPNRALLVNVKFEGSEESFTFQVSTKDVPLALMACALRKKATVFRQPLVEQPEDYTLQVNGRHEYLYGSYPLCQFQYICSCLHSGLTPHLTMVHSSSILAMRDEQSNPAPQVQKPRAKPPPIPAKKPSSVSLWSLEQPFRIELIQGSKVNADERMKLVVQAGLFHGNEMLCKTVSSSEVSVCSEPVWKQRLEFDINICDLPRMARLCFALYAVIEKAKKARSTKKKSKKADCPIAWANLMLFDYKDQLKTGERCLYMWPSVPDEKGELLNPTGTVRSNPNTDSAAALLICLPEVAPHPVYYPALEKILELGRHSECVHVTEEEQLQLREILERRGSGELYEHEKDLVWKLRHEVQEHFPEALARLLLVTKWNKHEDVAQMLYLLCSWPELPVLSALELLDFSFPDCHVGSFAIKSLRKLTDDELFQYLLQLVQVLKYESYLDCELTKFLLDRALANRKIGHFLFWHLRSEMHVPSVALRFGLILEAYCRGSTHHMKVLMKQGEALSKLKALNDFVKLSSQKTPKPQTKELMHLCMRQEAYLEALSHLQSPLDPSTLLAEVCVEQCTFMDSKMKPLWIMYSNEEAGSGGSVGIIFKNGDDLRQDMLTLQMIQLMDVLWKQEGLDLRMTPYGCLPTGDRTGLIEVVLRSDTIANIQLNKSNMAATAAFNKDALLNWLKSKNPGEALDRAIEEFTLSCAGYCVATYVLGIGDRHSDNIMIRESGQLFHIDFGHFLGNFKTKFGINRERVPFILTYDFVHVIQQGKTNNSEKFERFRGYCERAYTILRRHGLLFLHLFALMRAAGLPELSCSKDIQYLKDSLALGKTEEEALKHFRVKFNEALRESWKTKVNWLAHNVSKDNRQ
Chain of PI 3-kinase delta (Q63787 whole entry partner): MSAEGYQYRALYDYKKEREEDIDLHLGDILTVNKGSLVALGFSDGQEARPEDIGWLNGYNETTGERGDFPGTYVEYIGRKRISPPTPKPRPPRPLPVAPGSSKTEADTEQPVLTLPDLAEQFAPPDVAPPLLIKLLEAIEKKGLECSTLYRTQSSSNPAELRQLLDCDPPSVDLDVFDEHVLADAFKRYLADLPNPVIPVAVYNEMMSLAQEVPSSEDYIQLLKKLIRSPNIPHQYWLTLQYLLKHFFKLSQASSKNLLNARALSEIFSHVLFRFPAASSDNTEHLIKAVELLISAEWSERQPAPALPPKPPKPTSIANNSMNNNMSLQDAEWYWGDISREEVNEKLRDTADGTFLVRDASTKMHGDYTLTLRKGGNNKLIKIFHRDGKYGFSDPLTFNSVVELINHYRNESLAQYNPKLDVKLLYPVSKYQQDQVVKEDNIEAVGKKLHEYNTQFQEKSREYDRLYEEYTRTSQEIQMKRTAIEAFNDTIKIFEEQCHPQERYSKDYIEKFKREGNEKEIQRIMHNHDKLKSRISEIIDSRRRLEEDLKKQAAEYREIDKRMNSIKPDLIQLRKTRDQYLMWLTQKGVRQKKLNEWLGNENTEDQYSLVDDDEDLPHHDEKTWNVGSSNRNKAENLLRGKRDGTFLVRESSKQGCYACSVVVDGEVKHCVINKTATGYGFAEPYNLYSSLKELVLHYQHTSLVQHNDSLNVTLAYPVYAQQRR

First: Cc1ccc(S(=O)(=O)NCCC(C)(C)O)cc1-c1cncc(-c2cn(CCN3CCOCC3)nc2C)n1 [Example 10, N-(3-Hydroxy-3-methyl-butyl)-4-methyl-3-{6-[3-methyl-1-(2-morpholin-4-yl-ethyl)-1H-pyrazol-4-yl]-pyrazin-2-yl}-benzenesulfonamide]
Second: Cc1ccc(S(=O)(=O)NCCC(C)(C)O)cc1-c1cncc(-c2cnn(CCN3CCOCC3)c2)n1 [Example 9, N-(3-Hydroxy-3-methyl-butyl)-4-methyl-3-{6-[1-(2-morpholin-4-yl-ethyl)-1H-pyrazol-4-yl]-pyrazin-2-yl}-benzenesulfonamide]
The IC50 of the first is 2.2-fold lower: 0.771 µM for the first, 1.68 µM for the second.

Going from `Cc1ccc(S(=O)(=O)NCC(C)(C)O)cc1-c1cncc(-c2cn(C)nc2C)n1` [Example 2, 3-[6-(1,3-Dimethyl-1H-pyrazol-4-yl)-pyrazin-2-yl]-N-(2-hydroxy-2-methyl-propyl)-4-methyl-benzenesulfonamide] to `Cc1ccc(S(=O)(=O)NCCC(C)(C)O)cc1-c1cncc(-c2cn(C)nc2C)n1` [Example 3, 3-[6-(1,3-Dimethyl-1H-pyrazol-4-yl)-pyrazin-2-yl]-N-(3-hydroxy-3-methyl-butyl)-4-methyl-benzenesulfonamide], the IC50 rises from 0.367 µM to 1.37 µM (3.7-fold).

First: Cc1ccc(S(=O)(=O)NCC2(C)COC2)cc1-c1cncc(-c2cn(C)nc2C)n1 [Example 4, Trans 3-[6-(1,3-Dimethyl-1H-pyrazol-4-yl)-pyrazin-2-yl]-4-methyl-N-(3-methyl-oxetan-3-ylmethyl)-benzenesulfonamide]
Second: Cc1ncc(-c2cncc(-c3cc(S(=O)(=O)N[C@H]4CC[C@H](O)CC4)ccc3C)n2)s1 [Example 5, Trans N-(4-Hydroxycyclohexyl)-4-methyl-3-(6-(2-methylthiazol-5-yl)pyrazin-2-yl)benzenesulfonamide]
The IC50 of the first is 1.9-fold lower: 0.285 µM for the first, 0.54 µM for the second. The first is the more potent here.

With `Cc1ccc(S(=O)(=O)N[C@H]2CC[C@H](O)CC2)cc1-c1cncc(-c2cccnc2)n1` [Example 11, Trans N-(4-Hydroxy-cyclohexyl)-4-methyl-3-(6-pyridin-3-yl-pyrazin-2-yl)-benzenesulfonamide] the IC50 was 1.05 µM.
